Patent publication US20250144094A1 (Erasca, Inc., priority 2021, published 2025)

Target: Recombinant human ULK1 (1-649) (Homo sapiens (Human), UniProt O75385)
Assay: ULK1 ADP Glo kinase activity assay (MBP substrate)
Conditions: 25° C., 40 minutes, read-out: ULK1 biochemical IC50
Protocol: Recombinant human ULK1 (1-649) protein expressed in Sf9 insect cells was obtained from SignalChem (Vancouver, BC), catalog #U01-11G. Active kinase was purified via N-terminal GST tag to >85% purity.
ADP GLO Kinase Assay Reagents were obtained from Promega Corp (Madison, WI), catalog #V9104.
MBP (myelin basic protein) substrate, bovine, purified, was obtained from Sigma (St. Louis, MO), catalog #M1891.
ULK1 inhibitor potency was determined using the luminescent ADP Glo Kinase Assay (Promega), a universal ADP detection system that measures kinase activity by quantifying the amount of ADP produced during a kinase reaction. ULK1 kinase reactions are performed in a standard 96-well microplate (20 uL reaction volume) at 25° C. for 40 minutes in the presence or absence of the test compound (12-point dilution series starting at 10 uM). Addition of MBP substrate and ATP initiates the kinase reaction.
The standard ADP Glo assay is performed in two steps. In step one, following the kinase reaction, an equal volume of ADP-Glo™ Reagent (20 uL) is added to terminate the kinase reaction and deplete the remaining ATP. In the second step, the Kinase Detection Reagent (10 uL) is added to simultaneously convert ADP to ATP and allow the newly synthesized ATP to be measured using a luciferase/luciferin reaction. Step two of the ADP Glo assay is performed in a white 384-well plate (20 uL final volume). Thirty minutes after the addition of the Detection reagent, light generated from the luciferase reaction is measured (1 second exposure) using a microplate compatible luminometer (CLARIOstar, BMG Labtech).
Inhibition of ULK1 kinase activity is determined for each test compound by comparison to DMSO only control wells. Inhibitor IC50 was calculated by plotting the change in luminescence after 30 minutes (response) versus inhibitor concentration (in log molar) then applying the four-parameter variable slope curve fit (GraphPad Prism). Inhibition of ULK1 in biochemical assay is found in Table 3.

Chain of Recombinant human ULK1 (1-649) (O75385 1-649): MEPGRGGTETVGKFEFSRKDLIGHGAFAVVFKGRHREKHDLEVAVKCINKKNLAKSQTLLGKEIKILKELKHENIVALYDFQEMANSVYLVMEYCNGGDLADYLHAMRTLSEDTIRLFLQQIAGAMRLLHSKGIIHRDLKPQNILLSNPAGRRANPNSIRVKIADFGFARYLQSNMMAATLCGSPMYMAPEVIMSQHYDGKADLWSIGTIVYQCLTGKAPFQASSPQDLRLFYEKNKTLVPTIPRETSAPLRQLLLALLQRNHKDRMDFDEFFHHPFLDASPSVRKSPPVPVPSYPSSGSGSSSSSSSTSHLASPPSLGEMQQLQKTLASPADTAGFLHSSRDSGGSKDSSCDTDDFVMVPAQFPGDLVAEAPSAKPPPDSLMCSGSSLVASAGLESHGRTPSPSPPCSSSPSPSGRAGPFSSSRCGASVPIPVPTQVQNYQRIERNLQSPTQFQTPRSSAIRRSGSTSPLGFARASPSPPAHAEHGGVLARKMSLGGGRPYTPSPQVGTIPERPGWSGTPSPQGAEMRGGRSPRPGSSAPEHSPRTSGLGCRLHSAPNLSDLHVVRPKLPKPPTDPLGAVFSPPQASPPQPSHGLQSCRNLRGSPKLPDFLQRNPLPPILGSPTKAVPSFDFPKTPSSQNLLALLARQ

| SMILES | IC50 |
| --- | --- |
| CN1C(=O)c2cc(-c3nc(Nc4cc5c(cc4Cl)CNCC5)ncc3C(F)(F)F)sc2C1(C)C [Example 42, 2-(2-((7-chloro-1,2,3,4-tetrahydroisoquinolin-6-yl)amino)-5-(trifluoromethyl)pyrimidin-4-yl)-5,6,6-trimethyl-5,6-dihydro-4H-thieno[2,3-c]pyrrol-4-one] | ≤ 10 nM |
| Cc1nn(C2CN(C)C2)cc1Nc1ncc(C(F)(F)F)c(-c2cc(S(C)(=O)=O)cs2)n1 [Example 124, N-(3-methyl-1-(1-methylazetidin-3-yl)-1H-pyrazol-4-yl)-4-(4-(methylsulfonyl)thiophen-2-yl)-5-(trifluoromethyl)pyrimidin-2-amine] | 100 to 500 nM |
| CS(=O)(=O)c1csc(-c2nc(Nc3ccc4c(c3)CCNC4)ncc2C(F)(F)F)c1 [Example 105, N-(4-(4-(methylsulfonyl)thiophen-2-yl)-5-(trifluoromethyl)pyrimidin-2-yl)-1,2,3,4-tetrahydroisoquinolin-6-amine] | ≤ 10 nM |
| CS(=O)(=O)N1CCc2sc(-c3nc(Nc4cc5c(cc4Cl)CNCC5)ncc3C(F)(F)F)cc2C1=O [Example 44, 2-(2-((7-chloro-1,2,3,4-tetrahydroisoquinolin-6-yl)amino)-5-(trifluoromethyl)pyrimidin-4-yl)-5-(methylsulfonyl)-6,7-dihydrothieno[3,2-c]pyridin-4(5H)-one] | ≤ 10 nM |
| Cc1nn(C2CN(C)C2)cc1Nc1ncc(C(F)(F)F)c(-c2cc(S(C)(=O)=O)cs2)n1 [Example 120, N-[3-methyl-1-(1-methylazetidin-3-yl)pyrazol-4-yl]-4-(4-methylsulfonyl-2-thienyl)-5-(trifluoromethyl)pyrimidin-2-amine] | 10 to 50 nM |
| CN1CCc2cc(Nc3ncc(C(F)(F)F)c(-c4cc(S(C)(=O)=O)cs4)n3)c(Cl)cc2C1 [Example 95, 7-chloro-2-methyl-N-(4-(4-(methylsulfonyl)thiophen-2-yl)-5-(trifluoromethyl)pyrimidin-2-yl)-1,2,3,4-tetrahydroisoquinolin-6-amine] | ≤ 10 nM |
| CN1CC(N2Cc3cc(Cl)c(Nc4ncc(C(F)(F)F)c(-c5cc(C(N)=O)cs5)n4)cc3C2)C1 [Example 12, 5-(2-((6-chloro-2-(1-methylazetidin-3-yl)isoindolin-5-yl)amino)-5-(trifluoromethyl)pyrimidin-4-yl)thiophene-3-carboxamide] | ≤ 10 nM |
| CN1CCCc2cc(Nc3ncc(C(F)(F)F)c(-c4cc(S(C)(=O)=O)cs4)n3)c(Cl)cc2C1 [Example 133, 8-chloro-2-methyl-N-(4-(4-(methylsulfonyl)thiophen-2-yl)-5-(trifluoromethyl)pyrimidin-2-yl)-2,3,4,5-tetrahydro-1H-benzo[c]azepin-7-amine] | ≤ 10 nM |
| O=C1NCCS(=O)(=O)c2cc(-c3nc(Nc4cc5c(cc4Cl)CN(CC(F)(F)F)CC5)ncc3C(F)(F)F)sc21 [Example 125, 7-(2-((7-chloro-2-(2,2,2-trifluoroethyl)-1,2,3,4-tetrahydroisoquinolin-6-yl)amino)-5-(trifluoromethyl)pyrimidin-4-yl)-3,4-dihydrothieno[2,3-f][1,4]thiazepin-5(2H)-one 1,1-dioxide] | 100 to 500 nM |
| NC(=O)c1csc(-c2nc(Nc3cc4c(cc3Cl)CNCC4)ncc2C(F)(F)F)c1 [Example 1, 5-(2-((7-chloro-1,2,3,4-tetrahydroisoquinolin-6-yl)amino)-5-(trifluoromethyl)pyrimidin-4-yl)thiophene-3-carboxamide] | ≤ 10 nM |
| CN1CC(N2CCc3cc(Nc4ncc(C(F)(F)F)c(-c5cc(C(N)=O)cs5)n4)c(Cl)cc3C2)C1 [Example 11, 5-(2-((7-chloro-2-(1-methylazetidin-3-yl)-1,2,3,4-tetrahydroisoquinolin-6-yl)amino)-5-(trifluoromethyl)pyrimidin-4-yl)thiophene-3-carboxamide] | 10 to 50 nM |
| CN1CCc2cc(Nc3ncc(C(F)(F)F)c(-c4cc(S(C)(=O)=O)c(CN5CCOCC5)s4)n3)c(Cl)cc2C1 [Example 67, 7-chloro-2-methyl-N-(4-(4-(methylsulfonyl)-5-(morpholinomethyl)thiophen-2-yl)-5-(trifluoromethyl)pyrimidin-2-yl)-1,2,3,4-tetrahydroisoquinolin-6-amine] | 10 to 50 nM |
| CN1CCc2cc(Cl)c(Nc3ncc(C(F)(F)F)c(-c4cc(S(C)(=O)=O)cs4)n3)cc2C1 [Example 100, 6-chloro-2-methyl-N-(4-(4-(methylsulfonyl)thiophen-2-yl)-5-(trifluoromethyl)pyrimidin-2-yl)-1,2,3,4-tetrahydroisoquinolin-7-amine] | ≤ 10 nM |
| NC(=O)c1csc(-c2nc(Nc3cc4c(cc3Cl)CNCC4)ncc2C(N)=O)c1 [Example 26, 4-(4-Carbamoylthiophen-2-yl)-2-((7-chloro-1,2,3,4-tetrahydroisoquinolin-6-yl)amino)pyrimidine-5-carboxamide] | > 500 nM |
| CN1CC(c2ccc(Cl)c(Nc3ncc(C(F)(F)F)c(-c4cc(S(C)(=O)=O)cs4)n3)c2)C1 [Example 122, N-(2-chloro-5-(1-methylazetidin-3-yl)phenyl)-4-(4-(methylsulfonyl)thiophen-2-yl)-5-(trifluoromethyl)pyrimidin-2-amine] | 100 to 500 nM |
| Cn1ncc2sc(-c3nc(Nc4cc5c(cc4Cl)CNCC5)ncc3C(F)(F)F)cc2c1=O [Example 31, 2-(2-((7-Chloro-1,2,3,4-tetrahydroisoquinolin-6-yl)amino)-5-(trifluoromethyl)pyrimidin-4-yl)-5-methylthieno[2,3-d]pyridazin-4(5H)-one] | ≤ 10 nM |
| CN1Cc2cc(F)c(Nc3ncc(C(F)(F)F)c(-c4cc(S(C)(=O)=O)cs4)n3)cc2C1 [Example 80, 6-fluoro-N-[4-(4-methanesulfonylthiophen-2-yl)-5-(trifluoromethyl)pyrimidin-2-yl]-2-methyl-2,3-dihydro-1H-isoindol-5-amine] | ≤ 10 nM |
| CN1CCc2sc(-c3nc(Nc4cc5c(cc4Cl)CNCC5)ncc3C(F)(F)F)cc2C1=O [Example 21, 2-(2-((7-Chloro-1,2,3,4-tetrahydroisoquinolin-6-yl)amino)-5-(trifluoromethyl)pyrimidin-4-yl)-5-methyl-6,7-dihydrothieno[3,2-c]pyridin-4(5H)-one] | ≤ 10 nM |

Further lines, results first:

| IC50 | SMILES |
| --- | --- |
| ≤ 10 nM | CN1CCc2cc(Nc3ncc(C(F)(F)F)c(-c4cc(C(N)=O)cs4)n3)c(C3CC3)cc2C1 [Example 14, 5-(2-((7-cyclopropyl-2-methyl-1,2,3,4-tetrahydroisoquinolin-6-yl)amino)-5-(trifluoromethyl)pyrimidin-4-yl)thiophene-3-carboxamide] |
| ≤ 10 nM | Cc1sc(-c2nc(Nc3cc4c(cc3Cl)CNCC4)ncc2C(F)(F)F)cc1C(N)=O [Example 45, 5-(2-((7-chloro-1,2,3,4-tetrahydroisoquinolin-6-yl)amino)-5-(trifluoromethyl)pyrimidin-4-yl)-2-methylthiophene-3-carboxamide] |
| > 500 nM | Cc1nc(=O)c2cc(-c3nc(Nc4cc5c(cc4Cl)CNCC5)ncc3C(F)(F)F)sc2[nH]1 [Example 50, 6-(2-((7-chloro-1,2,3,4-tetrahydroisoquinolin-6-yl)amino)-5-(trifluoromethyl)pyrimidin-4-yl)-2-methylthieno[2,3-d]pyrimidin-4(1H)-one] |
| ≤ 10 nM | O=C1NCCOc2sc(-c3nc(Nc4cc5c(cc4Cl)CNCC5)ncc3C(F)(F)F)cc21 [Example 71, 7-(2-((7-chloro-1,2,3,4-tetrahydroisoquinolin-6-yl)amino)-5-(trifluoromethyl)pyrimidin-4-yl)-3,4-dihydrothieno[3,2-f][1,4]oxazepin-5(2H)-one] |
| 10 to 50 nM | FC(F)(F)c1cnc(Nc2cc3c(cc2Cl)CNCC3)nc1-c1cc(C2=NCCO2)cs1 [Example 8, 7-chloro-N-(4-(4-(4,5-dihydrooxazol-2-yl)thiophen-2-yl)-5-(trifluoromethyl)pyrimidin-2-yl)-1,2,3,4-tetrahydroisoquinolin-6-amine] |
| ≤ 10 nM | O=C1NCCNc2sc(-c3nc(Nc4cc5c(cc4Cl)CNCC5)ncc3C(F)(F)F)cc21 [Example 53, 7-(2-((7-chloro-1,2,3,4-tetrahydroisoquinolin-6-yl)amino)-5-(trifluoromethyl)pyrimidin-4-yl)-1,2,3,4-tetrahydro-5H-thieno[2,3-e][1,4]diazepin-5-one] |
| ≤ 10 nM | COCCOc1sc(-c2nc(Nc3cc4c(cc3Cl)CNCC4)ncc2C(F)(F)F)cc1S(C)(=O)=O [Example 56, 7-chloro-N-(4-(5-(2-methoxyethoxy)-4-(methylsulfonyl)thiophen-2-yl)-5-(trifluoromethyl)pyrimidin-2-yl)-1,2,3,4-tetrahydroisoquinolin-6-amine] |
| ≤ 10 nM | CS(=O)(=O)c1csc(-c2nc(Nc3cc4c(cc3Cl)CCNC4)ncc2C(F)(F)F)c1 [Example 99, 6-chloro-N-(4-(4-(methylsulfonyl)thiophen-2-yl)-5-(trifluoromethyl)pyrimidin-2-yl)-1,2,3,4-tetrahydroisoquinolin-7-amine] |
